This passage reports inhibition index results from US20030125234A1, “Alteration of protein stability” (priority 2001, published 2003).

Assay type in all cases: biochemical
Test [1] has as its target T1, yeast alcohol dehydrogenase (ADH) (Saccharomyces cerevisiae, UniProt P00330).
T1 construct: purchased Sigma
T1 sequence (P00330 2-348 limits assumed): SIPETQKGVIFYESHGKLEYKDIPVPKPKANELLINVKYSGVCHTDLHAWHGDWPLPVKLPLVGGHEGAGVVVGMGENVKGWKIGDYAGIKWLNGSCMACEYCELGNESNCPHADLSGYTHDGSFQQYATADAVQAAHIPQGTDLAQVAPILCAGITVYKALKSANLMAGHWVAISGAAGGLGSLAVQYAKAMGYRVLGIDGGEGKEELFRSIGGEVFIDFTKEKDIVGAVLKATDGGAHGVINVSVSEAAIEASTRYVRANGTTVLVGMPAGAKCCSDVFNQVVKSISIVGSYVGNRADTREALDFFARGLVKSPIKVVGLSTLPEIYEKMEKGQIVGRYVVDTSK
Description: ADH oxidation-induced aggregation (turbidity at 360 nm), Cu(OP)2. The settings on record: ADH 1 mg/mL, 37° C., Cu(OP)2. In a few lines:
(§1)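 OD360 was followed for 1 h against protein without test compound. pST (1.27 mg/mL, pH 6.1 phosphate) at 60° C with 20 mg/mL PEG 8000; lysozyme (0.4 mg/mL, pH 8.2 Tris/EDTA) at 25° C and HLF (0.4 mg/mL, pH 7.4 HEPES) at 43° C with 1.27E-4 M DTT; ADH (1 mg/mL) 37° C, 7.76E-5 M Cu(OP)2.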

In test [2] the target is T2, porcine somatotropin (pST) (Sus scrofa, UniProt P01248).
T2 construct: purchased Pfizer, Inc., Groton, Conn., USA (provided, not bought)
T2 sequence (P01248 27-216): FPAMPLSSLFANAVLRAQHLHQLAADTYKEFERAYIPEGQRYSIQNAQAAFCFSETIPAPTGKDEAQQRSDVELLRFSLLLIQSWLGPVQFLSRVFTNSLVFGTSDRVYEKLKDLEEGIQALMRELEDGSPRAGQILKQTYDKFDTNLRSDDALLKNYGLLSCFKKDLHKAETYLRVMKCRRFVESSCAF
Description: Porcine somatotropin aggregation (turbidity at 360 nm) with PEG 8000. The settings on record: pST 1.27 mg/mL, 60° C., standard deviation in parenthesis. Put shortly:
as §1

In another test the target is T3, Bovine insulin (Bos taurus, UniProt P01317).
T3 construct: purchased Sigma, St. Louis, Mo., USA
T3 sequence (P01317 25-54 limits assumed): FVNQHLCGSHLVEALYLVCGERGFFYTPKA
T3 sequence (P01317 85-105 limits assumed): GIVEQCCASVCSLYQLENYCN
Nature of the test: Insulin aggregation (turbidity at 360 nm) induced by DTT. The note with it: Insulin 0.25 mg/mL, 25° C., DTT; compound 100×; standard deviation in parenthesis. In a few lines:
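Reductive aggregation of insulin was tracked as optical density at 360 nm over 1 hour at 25° C. Insulin at 0.25 mg/mL in pH 7.0 phosphate saline was stirred with the test compound in 1 cm thermostatted cuvettes, read every 30 seconds, or in 96-well plates. DTT […] was then added. Compound-free insulin served as the reference.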

Test [3] concerns the target human acidic fibroblast growth factor (FGF-1) (Homo sapiens, UniProt P05230). Nature of the test: FGF-1 thermal aggregation (turbidity at 360 nm). The note with it: FGF-1 50 μg/mL, 50° C., standard deviation in parenthesis. In a few lines:
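Additive effects on thermal aggregation were read from the steepest slope of OD360-versus-time curves recorded over 1 h and referenced to additive-free protein. FGF-1 (50 μg/mL, phosphate/NaCl pH 7.2) was stressed at 50° C; citrate synthase (96 μg/mL, HEPES/KCl pH 7.8) at 45° C.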

Setting [4] is: compound 1,000X, standard deviation in parenthesis.
The mark [5] stands for this setting: compound 10,000X molar excess, Infinite = complete inhibition of aggregation over one hour.

human acidic fibroblast growth factor (FGF-1), sequence (P05230 whole entry): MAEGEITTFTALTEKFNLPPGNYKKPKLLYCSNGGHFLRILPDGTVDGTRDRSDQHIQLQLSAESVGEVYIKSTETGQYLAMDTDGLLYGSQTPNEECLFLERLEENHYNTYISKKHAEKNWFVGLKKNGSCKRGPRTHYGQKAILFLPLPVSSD

diglycine: the inhibition index is 4.0 (0.9) in test [1] (setting [4]); 0.7 (0.1) in test [1] (setting [5]); 1.9 (0.3) in test [2] (compound 100X); 1.0 (0.2) on Bovine insulin; 1.0 (0.1) in test [3] (compound 1,000×); 1.2 (0.4) in test [3] (compound 10,000×).

Take `O=C(O)CCCCC(=O)O` [adipate, adipic acid]: the inhibition index is given as 4.9 (0.9) in test [1] (setting [5]); 0.9 (0.1) in test [2] (compound 100X); 3.9 (0.7) in test [2] (compound 2,000X); 1.2 (0.7) at Bovine insulin; 3.0 (0.7) in test [3] (compound 1,000×); 5.0 (3.3) in test [3] (compound 10,000×).

Take Lys-Lys: the inhibition index is 1.4 (0.2) in test [1] (setting [4]); 2.7 in test [1] (setting [5]); 0.9 (0.1) in test [2] (compound 100X); 1.1 (0.1) at Bovine insulin; 1.1 (0.1) in test [3] (compound 1,000×); 3.1 (0.8) in test [3] (compound 10,000×).

Consider Glu-Glu, for which the inhibition index in test [1] (setting [4]) is on record as 1.4 (0.2); in test [1] (setting [5]) it was 5.3 (1.2); in test [2] (compound 100X), 0.6 (0.1); at Bovine insulin it was 1.0 (0.1); in test [3] (compound 1,000×), 1.3 (0.2); in test [3] (compound 10,000×), 7.1 (2.7).

With `O=C(O)CCCC(=O)O` [glutarate, glutaric acid], the inhibition index is reported as 1.8 (0.4) in test [1] (setting [5]); 0.9 (0.1) in test [2] (compound 100X); 3.1 (0.7) in test [2] (compound 2,000X); 1.0 (0.2) at Bovine insulin; 3.0 (0.9) in test [3] (compound 1,000×); 10.8 (8.4) in test [3] (compound 10,000×).
